{"source": "patent US10233157B2", "about": "“SIK inhibitor for use in a method of treating an inflammatory and/or immune disorder” (Dana-Farber Cancer Institute, Inc., priority 2012, dated 2019)", "key": {"RAW264.7 macrophages": {"test_system": "RAW264.7 macrophages", "test": "IL-10 mRNA in RAW264.7 cells with shRNA knockdown of SIKs", "assay_type": "cell-based", "conditions": "for IC50: Mus musculus, RAW264.7, 1 h", "procedure": ". (FIG. 16A) mRNA abundance of SIK1, SIK2 and SIK3 in RAW264.7 macrophages. Gene expression was measured by qPCR. The number of copies of each SIK mRNA was normalized to GAPDH. (mean±SD, n=3). (FIG. 16B) The efficiency of SIK knock-down. RAW264.7 cells were transduced with lentiviral vectors encoding a control shRNA or shRNAs targetting SIK1, SIK2 and SIK3. The expression of SIK1, SIK2 and SIK3 was measured by qPCR and normalized to that of control cells using GAPDH (mean±SD, n=3). […]. The levels of IL-10 mRNA were measured by qPCR and normalized using GAPDH. Data are presented with the highest level of expression set to 1 (mean±SD, n=3). […] (FIG. 16D) Increased IL-10 expression in cells with decreased SIK expression. […].\nRNAi in Macrophages RAW264.7 cells or BMDMs were transfected with 100 pmol of SMARTpool siRNA oligos against CREB, CRTC1, CRTC2, CRTC3 or a non-targetting control (Dharmacon) using AMAXA nucleofection. Cells were cultured for 24 h prior to incubation with inhibitors for 1 h followed by stimulation for 1 h with 100 ng/ml LPS. Gene expression was measured by real-time quantitative PCR. For shRNA knockdown of SIKs, lentivirus was generated according to the manufacturer's instructions (Sigma) and RAW264.7 cells were infected using virus harvested 48 and 72 h post-transfection. Infected cells were selected using 3 μg/ml puromycin. QPCR"}, "CRTC3": {"test_system": "CRTC3", "test": "CRTC3 phosphorylation in macrophages (phosphoproteomics, immunoblotting)", "assay_type": "cell-based", "procedure": "RAW264.7 cells were labelled using the Stable Isotope Labelling of Amino Acids in Cell Culture (SILAC) method. […] The cells were lysed in detergent-free lysis buffer (8 M urea, 50 mM Tris pH8.2, 10 mM glycerol 2-phosphate, 50 mM sodium fluoride, 5 mM sodium pyrophosphate, 1 mM EDTA, 1 mM sodium orthovanadate, 10 mM DTT, 1 mM PMSF, 1 μg/ml aprotinin, 1 μg/ml leupeptin), the extract clarified by centrifugation and protein concentration determined using the Bradford method. 2 mg of cell extract protein from each experimental condition were mixed in a 1:1:1 ratio and then alkylated with 50 mM iodoacetamide for 30 min. […] Phosphopeptides from these samples were enriched using a standard Fe^3+-IMAC enrichment protocol^32 and measured by LC-MS/MS. […] The data was analysed using MaxQUANT^33.\nCells were rinsed in ice-cold PBS and extracted in lysis buffer (50 mM Tris/HCl pH 7.4, 1 mM EDTA, 1 mM EGTA, 50 mM NaF, 5 mM sodium pyrophosphate, 10 mM sodium β-glycerol 1-phosphate, 1 mM dithiothreitol, 1 mM sodium orthovanadate, 0.27 M sucrose, 1% (v/v) Triton X-100, 1 μg/ml aprotinin, 1 μg/ml leupeptin and 1 mM phenylmethylsulphonyl fluoride). Cell extracts were clarified by centrifugation at 14000×g for 10 min at 4° C. and protein concentrations were determined using the Bradford assay. […]"}, "MARK isoforms": {"test_system": "MARK isoforms", "test": "Kinase assays, MARK isoforms", "assay_type": "biochemical", "conditions": "in vitro", "quoted_text": "FLAG-CRTC3 was immunoprecipitated using anti-FLAG M2 agarose, washed in kinase buffer (50 mM Tris/HCl pH 7.4, 10 mM Mg acetate, 0.1 mM EGTA, 2 mM DTT) and reactions initiated by adding 4 U/ml recombinant kinase with 0.1 mM ATP (specific activity 3000 cpm/pmol). Phosphorylation of CRTC3 was monitored by autoradiography as well as immunoblotting using phosphospecific antibodies raised against Ser162, Ser329 and Ser370."}, "CREB": {"test_system": "CREB", "test": "Immunoblotting of CREB phosphorylation in LPS-stimulated macrophages", "assay_type": "cell-based, mouse", "procedure": "Bone-marrow derived macrophages were differentiated for 7 days in DMEM supplemented with 5 ng/ml recombinant M-CSF (R&D systems), 2 mM glutamine, 10% foetal calf serum, penicillin and streptomycin. […]\nCells were rinsed in ice-cold PBS and extracted in lysis buffer (50 mM Tris/HCl pH 7.4, 1 mM EDTA, 1 mM EGTA, 50 mM NaF, 5 mM sodium pyrophosphate, 10 mM sodium α-glycerol 1-phosphate, 1 mM dithiothreitol, 1 mM sodium orthovanadate, 0.27 M sucrose, 1% (v/v) Triton X-100, 1 μg/ml aprotinin, 1 μg/ml leupeptin and 1 mM phenylmethylsulphonyl fluoride). Cell extracts were clarified by centrifugation at 14000×g for 10 min at 4° C. and protein concentrations determined using the Bradford assay. To detect proteins in cell lysates, 20 μg of protein extract was separated by SDS-PAGE. After transfer to PVDF membranes, proteins were detected by immunoblotting and visualized by treating the blots with ECL (Amersham) followed by autoradiography. The antibody recognizing CREB phosphorylated at Ser133 was from Cell Signalling Technology and the one detecting α-tubulin was obtained from Sigma."}}, "note": "Entries after “also recorded” stand apart in the source; their conditions may differ. Like-named read-outs stand apart in the source and are kept apart here.", "data": [{"smiles": "COc1ccc(N(C(=O)Nc2c(C)cccc2C)c2cc(Nc3ccc(N4CCN(C)CC4)cc3)ncn2)c(OC)c1", "note": "[HG-9-91-01, 1-(2,4-dimethoxyphenyl)-3-(2,6-dimethylphenyl)-1-(6-((4-(4-methylpiperazin-1-yl)phenyl)amino)pyrimidin-4-yl)urea]", "values": [{"measurement": "IC50", "setting": "RAW264.7 macrophages; read-out: IC50 for stimulation of IL-10 mRNA, SIK1/2/3 shRNA cells, 1 μg/ml Pam3CSK4 1 h", "value": "150 ± 20", "unit": "nM"}, {"measurement": "IC50", "setting": "RAW264.7 macrophages; read-out: IC50 for stimulation of IL-10 mRNA, control shRNA cells, 1 μg/ml Pam3CSK4 1 h", "value": "260 ± 10", "unit": "nM"}, {"measurement": "IL-10 mRNA expression in SIK-depleted versus wild-type macrophages", "setting": "RAW264.7 macrophages; suboptimal concentration (100 nM)", "value": 4, "unit": "fold"}]}, {"smiles": "O=C(NCCCNc1nc(Nc2cccc(CN3CCOCC3)c2)ncc1C1CC1)C1CCC1", "note": "[MRT67307]", "values": [{"measurement": "phosphorylation of CRTC3", "setting": "CRTC3; 2 μM MRT67307, Pam3CSK4-stimulated macrophages, phosphoproteomic study", "value": "robustly dephosphorylated at Ser62, Ser329 and Ser370; also recorded: blocked"}, {"measurement": "phosphorylation of CRTC3 at Ser370", "setting": "CRTC3; LPS stimulation", "value": "blocked"}, {"measurement": "inhibition of MARK isoforms", "setting": "MARK isoforms", "value": "comparable potency to the IKK-related kinases"}, {"measurement": "phosphorylation of CREB at Ser133 induced by LPS", "setting": "CREB", "value": "little effect"}]}]}
